In paper PMC12649225, “Machine Learning-Identified Potent Antimicrobial Peptides Against Multidrug-Resistant Bacteria and Skin Infections” (Antibiotics, 2025):
Where two headings read alike, the source gives them in different places. Residues, ends and D or L forms follow the SMILES beside them.

Assays:
A. baumannii RUH875 [1] = tested on: A. baumannii RUH875
Procedure: (§1) Bacteria incubated in PBS alone served as no-treatment controls. At five time points (1, 2, 5, 30, and 120 min), duplicate 50 µL samples were taken and immediately mixed with 50 µL of 0.05% (v/v) sodium polyanethol sulfonate (SPS; Sigma-Aldrich) in PBS to neutralize residual peptide activity. The number of viable bacteria was quantified by plating 10 µL aliquots of serial 10-fold dilutions onto sheep blood agar plates. Colonies were counted after 24 h of incubation at 37 °C.

S. aureus JAR060131 [2] = tested on: S. aureus JAR060131
Procedure: as §1

[3] = tested on: A. baumannii RUH875 biofilm; assay: Biofilm killing; type: cell-based, Acinetobacter baumannii; conditions: for Concentration killing ≥3 log CFU of A. baumannii biofilm within 2 h / Concentration giving complete eradication of A. baumannii biofilm, 24 h treatment: 24 h biofilm; for Concentration killing ≥3 log CFU of A. baumannii biofilm within 2 h: 2 h treatment in PBS, 1.88-120 μM, vs untreated biofilm; for Concentration giving complete eradication of A. baumannii biofilm, 24 h treatment: 24 h treatment in PBS; for A. baumannii biofilm killing, 24 h treatment (in words): up to 120 µM
Procedure: (§2) Mid-logarithmic phase cultures of A. baumannii RUH875 or S. aureus JAR060131 were diluted to 1 × 10^8 CFU/mL in RPMI supplemented with 1% glucose. A total of 100 μL of each suspension was added to flat-bottom polystyrene 96-well microplates (Costar) and incubated under static conditions at 37 °C in a humidified atmosphere for 24 h to allow biofilm formation. After 24 h, planktonic bacteria were removed, and wells were carefully washed with 100 μL PBS [60]. […] Control samples were exposed to 100 μL of PBS only.
(§3) Biofilms were treated at 37 °C for either 2 or 24 h. […] Plates were sealed and sonicated for 5 min (Elmasonic, Singen, Germany; 45 kHz) at room temperature to dislodge adherent bacteria. […] Quantitative cultures were performed by plating serial 10-fold dilutions on sheep blood agar, and results were expressed as log10 CFU per well. The lower limit of detection was three CFU. Each condition was tested in six replicates.

S. aureus JAR060131 [4] = assay: 3D human skin equivalent (HSE) infection model; type: cell-based, Staphylococcus aureus; conditions: for Concentration giving significant reductions in adherent S. aureus in HSE / Concentration eradicating adherent S. aureus in HSE: adherent fraction; for Concentration giving significant reductions in adherent S. aureus in HSE: p < 0.001
Procedure: Human keratinocytes (Ker-CT cell line; ATCC CRL-4048; RRID: CVCL_S877; ATCC, Manassas, VA, USA (October 2017)) were used to generate human skin equivalents (HSEs) following the method described by Gent et al.. Briefly, HSEs were cultured for 12 days, after which the culture medium was replaced with antibiotic-free medium, and cells were grown for an additional two days before infection (Figure S2). On the day of infection, HSEs were inoculated with 300 µL of S. aureus JAR060131 suspension (3 × 10^5 CFU) and incubated for 1 h at 37 °C with 5% CO2. Following incubation, the bacterial suspension was removed, and HSEs were washed once with 500 µL PBS. HSEs were then treated for 4 h with PBS (control), GDST-038, GDST-045, their RI variants, or the reference peptide SAAP-148 at concentrations of 3.75, 15, and 60 μM, in triplicate. Subsequently, supernatants containing planktonic (non-adherent) bacteria were collected and kept on ice. Peptide activity was neutralized by adding SPS (final concentration: 0.025% (v/v)). Adherent bacteria within HSEs were quantified by homogenizing the tissues in 0.5 mL PBS containing 0.025% (v/v) SPS, using five zirconia beads (Ø 2 mm; BioSpec Products, Bartlesville, OK, USA) in a MagNA Lyser System (Roche) for three cycles of 30 sec at 7000 rpm, with 30 sec cooling intervals on ice. Both supernatants and homogenized fractions were serially diluted, plated on blood agar, and incubated overnight at 37 °C to determine CFU counts.

[5] = tested on: BJ human skin fibroblast cells; assay: LDH leakage assay (membrane integrity); conditions: lowest concentration causing >30% LDH leakage; BJ fibroblasts; 24 h; DMEM with 2% FBS; 0.05-60 µM
Procedure: (§4) BJ human skin fibroblast cells (ATCC CRL-2522; RRID: CVCL_3653; LGC Standards, Germany (September 2023)) were cultured in Dulbecco’s Modified Eagle Medium (DMEM; Gibco, Waltham, MA, USA) supplemented with 10% (v/v) foetal bovine serum (FBS; Sigma-Aldrich) and 1% (v/v) penicillin/streptomycin (pen/strep; Gibco). Cell suspensions (5 × 10^5 cells/mL) were seeded into 96-well plates (100 μL/well; Thermo Scientific, Waltham, MA, USA) and allowed to adhere for 24 h. Monolayers were then exposed to two-fold serial dilutions of GDST peptides, their RI variants, and reference peptides (final concentrations: 0.05 to 60 µM) in fresh DMEM with 2% (v/v) FBS for 24 h at 37 °C in a humidified atmosphere with 5% CO2.
(§5) Cell viability and membrane integrity were assessed using the water-soluble tetrazolium salt (WST-1; Roche, Basel, Switzerland) assay and the lactate dehydrogenase (LDH; Abcam, Cambridge, UK) assay, respectively, according to manufacturer instructions. Results were expressed as percentages of metabolic activity and LDH leakage relative to untreated control cells and the positive lysis control, respectively. The cytotoxic concentration was defined as the lowest peptide concentration causing <70% metabolic activity and >30% LDH leakage. All experiments were performed in triplicate.

[6] = tested on: S. aureus JAR060131 biofilm; assay: Biofilm killing; type: cell-based, Staphylococcus aureus; conditions: for Concentration giving ≥3-log reduction of S. aureus biofilm CFU within 24 h: 24 h treatment, >3 log for BP2 and pexiganan; for Concentration giving ≥3-log reduction of S. aureus biofilm CFU within 2 h / Concentration giving complete eradication of S. aureus biofilm within 24 h: 24 h biofilm; for Concentration giving ≥3-log reduction of S. aureus biofilm CFU within 2 h: 2 h treatment in PBS; for Concentration giving complete eradication of S. aureus biofilm within 24 h: 24 h treatment in PBS
Procedure: as §2, §3

[7] = tested on: BJ human skin fibroblast cells; assay: WST-1 metabolic activity assay (cell viability); conditions: lowest concentration causing <70% metabolic activity (WST-1); BJ fibroblasts; 24 h; DMEM with 2% FBS; 0.05-60 µM
Procedure: as §4, §5

A. baumannii RUH875 [8] = assay: microbe, parasite or virus in culture; type: cell-based, Acinetobacter baumannii; conditions: RPMI, 48 h
Procedure: (§6) The potential for resistance development to GDST-038, GDST-045, and their RI variants was assessed as described by Habets and Brockhurst. Resistance development to the antibiotics rifampicin and ciprofloxacin (both from Sigma-Aldrich) was evaluated for comparison. Briefly, 10 μL of a mid-logarithmic phase culture of A. baumannii RUH875 or S. aureus JAR060131 was added to 90 μL of peptide (final concentrations: 0.23 to 120 μM) or antibiotic (final concentrations: 0.03 to 256 μg/mL) solution in RPMI, in 96-well polypropylene round-bottom plates (Costar). All incubations were performed in quadruplicate. Plates were sealed with breathable seals (Greiner) and incubated at 37 °C with shaking at 120 rpm in a humidified environment for 18 h (S. aureus) or 48 h (A. baumannii).
(§7) The minimum inhibitory concentration (MIC), defined as the lowest concentration that inhibited visible bacterial growth, was then determined. Subsequently, 2 μL from the 0.5-fold MIC condition was transferred to fresh medium containing a concentration series ranging from 0.5- to 8-fold the new MIC. This procedure was repeated over 22 consecutive passages to monitor resistance development.

S. aureus JAR060131 [9] = assay: microbe, parasite or virus in culture; type: cell-based, Staphylococcus aureus; conditions: RPMI, 18 h
Procedure: as §6, §7

[10] = 4 h peptide exposure, tested 3.75, 15, 60 μM
[11] = at all tested concentrations (3.75 µM, 15 µM, and 60 µM), 4 h

| Molecule | Time to complete killing of A. baumannii (A. baumannii RUH875 [1]; 3.75 μM) [min] | Time to complete killing of S. aureus (S. aureus JAR060131 [2]; 3.75 μM) [min] | Concentration killing ≥3 log CFU of A. baumannii biofilm within 2 h [3] [µM] | Concentration giving complete eradication of A. baumannii biofilm, 24 h treatment [3] [µM] | Concentration giving significant reductions in adherent S. aureus in HSE (S. aureus JAR060131 [4]; 4 h) [µM] | Effect on non-adherent S. aureus in HSE (S. aureus JAR060131 [4]; at 15 µM and 60 µM, 4 h) | Cytotoxicity LDH Leakage >30% [5] [µM] | Concentration giving ≥3-log reduction of S. aureus biofilm CFU within 24 h [6] [µM] | Cytotoxicity Metabolic Activity <70% [7] [µM] | Concentration giving ≥3-log reduction of S. aureus biofilm CFU within 2 h [6] [µM] | Concentration giving complete eradication of S. aureus biofilm within 24 h [6] [µM] | Time to complete killing of S. aureus (S. aureus JAR060131 [2]; 1.88 μM) [min] | A. baumannii biofilm killing, 24 h treatment (in words) ([3]; 24 h treatment) | Concentration eradicating adherent S. aureus in HSE (S. aureus JAR060131 [4]; [10]) [µM] | Effect on non-adherent S. aureus in HSE (S. aureus JAR060131 [4]; [11]) | other results |
| --- | --- | --- | --- | --- | --- | --- | --- | --- | --- | --- | --- | --- | --- | --- | --- | --- |
| CC[C@@H](C)[C@@H](NC(=O)[C@@H](C)NC(=O)[C@@H](CCCCN)NC(=O)[C@@H](CCCCN)NC(=O)[C@@H](Cc1c[nH]c2ccccc12)NC(=O)[C@@H](Cc1c[nH]c2ccccc12)NC(=O)[C@@H](CCCNC(=N)N)NC(=O)[C@@H](CC(C)C)NC(=O)[C@@H](CC(C)C)NC(C)=O)C(=O)N[C@H](CCCCN)C(=O)N[C@@H](C(=O)N[C@H](Cc1c[nH]c2ccccc12)C(=O)N[C@H](CCCNC(=N)N)C(=O)N[C@H](CCCCN)C(N)=O)C(C)C [GDST-038-RI] (HELM PEPTIDE1{[ac].[dL].[dL].[dR].[dW].[dW].[dK].[dK].[dA].[dI].[dK].[dV].[dW].[dR].[dK].[am]}$$$$V2.0; N-terminus and C-terminus assumed) | 120 | ≤ 2 | 60 | ≥ 60 | 60 | significant bacterial reductions | 3.75 | ≥ 60 | 3.75 |  |  |  |  |  |  |  |
| CC[C@@H](C)[C@@H](NC(=O)[C@@H](CC(C)C)NC(=O)[C@@H](CCCCN)NC(=O)[C@@H](CCCCN)NC(=O)[C@H](NC(=O)[C@@H](Cc1c[nH]c2ccccc12)NC(=O)[C@@H](CCCNC(=N)N)NC(=O)[C@@H](Cc1ccccc1)NC(=O)[C@@H](CC(C)C)NC(C)=O)C(C)C)C(=O)N[C@H](CCCCN)C(=O)N[C@@H](C(=O)N[C@H](Cc1c[nH]c2ccccc12)C(=O)N[C@H](CCCNC(=N)N)C(=O)N[C@H](CCCCN)C(N)=O)C(C)C [GDST-045-RI] (HELM PEPTIDE1{[ac].[dL].[dF].[dR].[dW].[dV].[dK].[dK].[dL].[dI].[dK].[dV].[dW].[dR].[dK].[am]}$$$$V2.0; N-terminus and C-terminus assumed) | ≤ 120 | ≤ 30 | ≥ 30 | 120 | 15 | significant bacterial reductions | 3.75 |  | 3.75 | ≥ 30 | 120 |  |  |  |  |  |
| Ac-KRWVKIAKKWWRLL-NH2 [GDST-038] |  |  | 120 |  |  |  | 3.75 | 120 | 3.75 | ≥ 60 |  | ≤ 5 | did not cause significant biofilm CFU reduction | 15 | completely eradicated | Time to complete killing of A. baumannii (A. baumannii RUH875 [1]; 1.88 μM): ≤ 5 min; Killing of A. baumannii within 5 min (A. baumannii RUH875 [1]; 1.88 μM, PBS, 5 min): > 90%; Killing of S. aureus within 5 min (S. aureus JAR060131 [2]; 1.88 μM, PBS, 5 min): > 90%; MIC A. baumannii, stable over 22 passages (A. baumannii RUH875 [8]): 0.47 µM; MIC S. aureus at the 22nd passage (S. aureus JAR060131 [9]): 1.88 µM; MIC S. aureus at the 1st passage (S. aureus JAR060131 [9]; median of four replicates): 0.94 µM; S. aureus biofilm CFU reduction within 2 h ([6]; 2 h treatment, concentration not given): 5.1 log CFU |
| Ac-KRWVKILKKVWRFL-NH2 [GDST-045] |  |  | 60 |  |  |  | 3.75 |  | 3.75 | ≥ 7.5 | ≥ 30 | ≤ 2 |  | 15 | completely eradicated | MIC A. baumannii at passage 16 (peak) (A. baumannii RUH875 [8]): 7.50 µM; MIC A. baumannii at the 1st passage (A. baumannii RUH875 [8]; median of four replicates): 0.94 µM; MIC A. baumannii at the 22nd passage (A. baumannii RUH875 [8]; serial passage at sub-inhibitory concentrations): 0.47 µM; Reduction in A. baumannii biofilm CFU, 24 h treatment ([3]; at ≥60 µM, 24 h treatment): 3.5 log; MIC S. aureus, constant throughout all passages (S. aureus JAR060131 [9]; 22 passages): 0.47 µM |
| Ac-LKRVWKRVFKLLKRYWRQLKKPVR-NH2 (N-terminus and C-terminus assumed) [SAAP-148, reference compound] |  |  | ≥ 15 |  |  |  | 1.88 |  | 3.75 |  |  |  | complete eradication | 60 |  | CFU reduction of non-adherent S. aureus in HSE (S. aureus JAR060131 [4]; 15 µM, 4 h, non-adherent fraction): 3 log CFU; Concentration reducing non-adherent S. aureus to below the detection limit in HSE (S. aureus JAR060131 [4]; non-adherent fraction, 4 h peptide exposure, tested 3.75, 15, 60 μM): 60 µM |
